Results from patent publication US20240158446A1, “CYCLIC COMPOUND HAVING SELECTIVE INHIBITORY ACTION ON KRAS OVER HRAS AND NRAS” (CHUGAI SEIYAKU KABUSHIKI KAISHA, priority 2021, published 2024).
pKd: −log10 of the molar value. Read-outs that look alike come from different tables or passages of the source. Where a SMILES comes first, the peptide text is derived from it. Bridges are numbered along the chain shown (N, C = ends). [ ]: non-standard residue; d: D form. The star is where a group is joined. hPhe(3-Cl-4-CF3) = N[C@@H](CCc1ccc(C(F)(F)F)c(Cl)c1)C(=O)O; NPrPhe(4-CF3) = CCCN[C@@H](Cc1ccc(C(F)(F)F)cc1)C(=O)O; NEtPhe(4-CF3) = CCN[C@@H](Cc1ccc(C(F)(F)F)cc1)C(=O)O; hPhe(3,4-Cl2) = N[C@@H](CCc1ccc(Cl)c(Cl)c1)C(=O)O; NEtPhe(4-Me) = CCN[C@@H](Cc1ccc(C)cc1)C(=O)O; NMeAbu(4,4,4-F3) = CN[C@@H](CC(F)(F)F)C(=O)O; Morpholine(3S-CO) = O=C(O)[C@@H]1COCCN1; NMeGly(cPent) = CN[C@H](C(=O)O)C1CCCC1; NMeD = CN[C@@H](CC(=O)O)C(=O)O; NMeL = CN[C@@H](CC(C)C)C(=O)O; Morpholide = C1CN(*)CCO1; NMeA = CN[C@@H](C)C(=O)O; Ac5c = NC1(C(=O)O)CCCC1; Aze = O=C(O)[C@@H]1CCN1; Ac4c = NC1(C(=O)O)CCC1; NEtG = CCNCC(=O)O; Sar = CNCC(=O)O

Experiments:
[1] = target: GDP-bound KRAS wild-type protein (Homo sapiens, UniProt P01116); experiment: Binding to KRAS by surface plasmon resonance (SPR), Single Cycle Kinetics; conditions: GDP-bound KRAS wild-type protein, read-out: KRAS KD
[2] = target: GDP-bound NRAS wild-type protein (Homo sapiens, UniProt P01111); experiment: Binding to NRAS by surface plasmon resonance (SPR), Single Cycle Kinetics; conditions: SPR, GDP-bound NRAS wild-type protein vs GDP-bound KRAS wild-type protein
[3] = target: GDP-bound HRAS wild-type protein (Homo sapiens, UniProt P01112); experiment: Binding to HRAS by surface plasmon resonance (SPR), Single Cycle Kinetics; conditions: SPR, GDP-bound HRAS wild-type protein vs GDP-bound KRAS wild-type protein
[4] = SPR Single Cycle Kinetics, 1:1 binding model

Sequence of GDP-bound HRAS wild-type protein (P01112 whole entry): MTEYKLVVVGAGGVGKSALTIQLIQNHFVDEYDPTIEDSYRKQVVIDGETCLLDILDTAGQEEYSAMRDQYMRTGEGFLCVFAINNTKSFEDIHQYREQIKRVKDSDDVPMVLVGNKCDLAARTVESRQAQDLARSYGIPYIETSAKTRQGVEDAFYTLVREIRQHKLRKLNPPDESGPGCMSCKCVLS
Sequence of GDP-bound NRAS wild-type protein (P01111 whole entry): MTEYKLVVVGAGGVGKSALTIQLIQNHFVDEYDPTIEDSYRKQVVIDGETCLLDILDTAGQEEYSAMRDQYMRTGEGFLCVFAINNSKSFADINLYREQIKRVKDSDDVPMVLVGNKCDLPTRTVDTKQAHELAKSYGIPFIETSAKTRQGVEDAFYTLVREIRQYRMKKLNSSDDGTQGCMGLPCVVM
Sequence of GDP-bound KRAS wild-type protein (P01116 whole entry): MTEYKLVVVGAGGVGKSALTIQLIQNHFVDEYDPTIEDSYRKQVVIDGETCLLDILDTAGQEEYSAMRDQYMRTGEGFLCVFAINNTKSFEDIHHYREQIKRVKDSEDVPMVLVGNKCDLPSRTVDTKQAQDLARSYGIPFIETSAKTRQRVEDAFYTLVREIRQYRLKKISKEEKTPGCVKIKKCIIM

Compound: CC[C@H](C)[C@@H]1NC(=O)[C@H](CC2CC2)N(C)C(=O)C[C@@H](C(=O)N(CC)CC)N(C)C(=O)[C@H](C2CCCC2)N(C)C(=O)C2(CC(C)(C)C2)NC(=O)[C@@H]2C[C@@H](F)CN2C(=O)[C@H](CCc2cc(F)c(C(F)(F)F)c(F)c2)NC(=O)CN(C)C(=O)[C@H](Cc2ccc(C(F)(F)F)cc2)N2CC/C=C\C[C@@H](C2=O)N(C)C(=O)CN(C)C1=O [PP1571]
- pKd ([1]; SPR, Single Cycle Kinetics, 1:1 binding model): 9.82
- NRAS/KRAS (ratio of KD value for NRAS to KD value for KRAS) ([2]; KD ratio class): A (a compound having 10 or more and less than 20 is denoted as A)
- HRAS/KRAS (ratio of KD value for HRAS to KD value for KRAS) ([3]; KD ratio class): A (a compound having 10 or more and less than 20 is denoted as A)

Compound: CCCN1C(=O)[C@@H]2CCN2C(=O)[C@H](C)N(C)C(=O)[C@H]([C@@H](C)CC)NC(=O)[C@H](CC(C)C)N(C)C(=O)C[C@@H](C(=O)N(C)C)NC(=O)[C@H](C2CCCC2)N(C)C(=O)C2(CCCC2)NC(=O)[C@@H]2CCCN2C(=O)[C@H](CCc2ccc(C(F)(F)F)c(Cl)c2)NC(=O)CN(C)C(=O)[C@@H]1Cc1ccc(C(F)(F)F)cc1 [PP0379] ([NMeL]I[NMeA][Aze][NPrPhe(4-CF3)][Sar][hPhe(3-Cl-4-CF3)]P[Ac5c][NMeGly(cPent)]D-NMe2; lactam N-11)
- pKd [1, 4]: 9.42
- NRAS/KRAS (ratio of KD value for NRAS to KD value for KRAS) [2]: C (A compound having a KD ratio of 0.1 or more and less than 3 is denoted as C)
- HRAS/KRAS (ratio of KD value for HRAS to KD value for KRAS) [3]: B (a compound having 3 or more and less than 10 is denoted as B)

Compound: CC[C@H](C)[C@@H]1NC(=O)[C@H](CC(C)C)N(C)C(=O)C[C@@H](C(=O)N2CCOCC2)N(C)C(=O)[C@H](C2CCCC2)N(C)C(=O)C2(CCCC2)NC(=O)[C@@H]2CCCN2C(=O)[C@H](CCc2ccc(Cl)c(Cl)c2)NC(=O)CN(C)C(=O)[C@H](Cc2ccc(C(F)(F)F)cc2)N(CC)C(=O)CN(C)C(=O)CN(C)C1=O [PP0237] ([NMeL]I[Sar][Sar][NEtPhe(4-CF3)][Sar][hPhe(3,4-Cl2)]P[Ac5c][NMeGly(cPent)][NMeD]-Morpholide; lactam N-11)
- pKd [1, 4]: 9.55
- NRAS/KRAS (ratio of KD value for NRAS to KD value for KRAS) [2]: B (a compound having 3 or more and less than 10 is denoted as B)
- HRAS/KRAS (ratio of KD value for HRAS to KD value for KRAS) [3]: C (A compound having a KD ratio of 0.1 or more and less than 3 is denoted as C)

Compound: CCCN1C(=O)CN(C)C(=O)CN(CC)C(=O)[C@H]([C@@H](C)CC)NC(=O)[C@H](CC(C)C)N(C)C(=O)C[C@@H](C(=O)N2CCOCC2)N(C)C(=O)[C@H](C2CCCC2)N(C)C(=O)C2(CCCC2)NC(=O)[C@@H]2COCCN2C(=O)[C@H](CCc2ccc(C(F)(F)F)c(Cl)c2)NC(=O)CN(C)C(=O)[C@@H]1Cc1ccc(C(F)(F)F)cc1 [PP0299] ([NMeL]I[NEtG][Sar][NPrPhe(4-CF3)][Sar][hPhe(3-Cl-4-CF3)][Morpholine(3S-CO)][Ac5c][NMeGly(cPent)][NMeD]-Morpholide; lactam N-11)
- pKd [1, 4]: 8.85
- NRAS/KRAS (ratio of KD value for NRAS to KD value for KRAS) [2]: B (a compound having 3 or more and less than 10 is denoted as B)
- HRAS/KRAS (ratio of KD value for HRAS to KD value for KRAS) [3]: B (a compound having 3 or more and less than 10 is denoted as B)

Compound: CCCN1C(=O)CN(C)C(=O)CN(C)C(=O)[C@H]([C@@H](C)CC)NC(=O)[C@H](CC(C)C)N(C)C(=O)C[C@@H](C(=O)N2CCOCC2)N(C)C(=O)[C@H](C2CCCC2)N(C)C(=O)C2(CCC2)NC(=O)[C@@H]2CCCN2C(=O)[C@H](CCc2ccc(C(F)(F)F)c(Cl)c2)NC(=O)CN(C)C(=O)[C@@H]1Cc1ccc(C(F)(F)F)cc1 [PP0197] ([NMeL]I[Sar][Sar][NPrPhe(4-CF3)][Sar][hPhe(3-Cl-4-CF3)]P[Ac4c][NMeGly(cPent)][NMeD]-Morpholide; lactam N-11)
- pKd [1, 4]: 9.89
- NRAS/KRAS (ratio of KD value for NRAS to KD value for KRAS) [2]: B (a compound having 3 or more and less than 10 is denoted as B)
- HRAS/KRAS (ratio of KD value for HRAS to KD value for KRAS) [3]: C (A compound having a KD ratio of 0.1 or more and less than 3 is denoted as C)

Compound: CCO[C@@H]1C[C@H]2C(=O)NC3(CCC3)C(=O)N(C)[C@@H](C3CCCC3)C(=O)N(C)[C@H](C(=O)N(C)C)CC(=O)N(C)[C@@H](CC)C(=O)N[C@@H]([C@@H](C)CC)C(=O)N(C)CC(=O)N(C)[C@H]3C[C@H]4C[C@H]4CN(C3=O)[C@@H](Cc3ccc(C(F)(F)F)cc3)C(=O)N(C)CC(=O)N[C@@H](CCc3cc(F)c(C(F)(F)F)c(F)c3)C(=O)N2C1 [PP0830]
- pKd ([1]; SPR, Single Cycle Kinetics): 10.24
- NRAS/KRAS (ratio of KD value for NRAS to KD value for KRAS) [2]: C (A compound having a KD ratio of 0.1 or more and less than 3 is denoted as C)
- HRAS/KRAS (ratio of KD value for HRAS to KD value for KRAS) [3]: C (A compound having a KD ratio of 0.1 or more and less than 3 is denoted as C)

Compound: CC[C@H](C)[C@@H]1NC(=O)[C@H](CC(F)(F)F)N(C)C(=O)C[C@@H](C(=O)N2CCOCC2)N(C)C(=O)[C@H](C2CCCC2)N(C)C(=O)C2(CCCC2)NC(=O)[C@@H]2CCCN2C(=O)[C@H](CCc2ccc(C(F)(F)F)c(Cl)c2)NC(=O)CN(C)C(=O)[C@H](Cc2ccc(C)cc2)N(CC)C(=O)CN(C)C(=O)CN(C)C1=O [PP0032] ([NMeAbu(4,4,4-F3)]I[Sar][Sar][NEtPhe(4-Me)][Sar][hPhe(3-Cl-4-CF3)]P[Ac5c][NMeGly(cPent)][NMeD]-Morpholide; lactam N-11)
- pKd [1, 4]: 9.43
- NRAS/KRAS (ratio of KD value for NRAS to KD value for KRAS) [2]: C (A compound having a KD ratio of 0.1 or more and less than 3 is denoted as C)
- HRAS/KRAS (ratio of KD value for HRAS to KD value for KRAS) [3]: C (A compound having a KD ratio of 0.1 or more and less than 3 is denoted as C)
